Test results: patent publication US4912097A, “Novel 11 β-alkynylphenyl-10-nor-steroids” (Roussel Uclaf, priority 1986, dated 1990)
Read-outs that look alike come from different tables or passages of the source.

Experiments:
[1] = biological target: T1, Progestogen Receptor of the Rabbit Uterus (Oryctolagus cuniculus, UniProt P06186); experiment: Relative bonding affinity (ARL), progestogen receptor of the rabbit uterus; format: binding; settings: for relative bonding affinity (ARL), Progestogen: displacement of tritiated R
T1 construct: The uteruses were removed, weighed and homogenized at 0° C; from tissue; host or cells: uterus of non-adult, estradiol-treated rabbits; high-speed supernatant of the homogenate
T1 sequence (P06186 1-930): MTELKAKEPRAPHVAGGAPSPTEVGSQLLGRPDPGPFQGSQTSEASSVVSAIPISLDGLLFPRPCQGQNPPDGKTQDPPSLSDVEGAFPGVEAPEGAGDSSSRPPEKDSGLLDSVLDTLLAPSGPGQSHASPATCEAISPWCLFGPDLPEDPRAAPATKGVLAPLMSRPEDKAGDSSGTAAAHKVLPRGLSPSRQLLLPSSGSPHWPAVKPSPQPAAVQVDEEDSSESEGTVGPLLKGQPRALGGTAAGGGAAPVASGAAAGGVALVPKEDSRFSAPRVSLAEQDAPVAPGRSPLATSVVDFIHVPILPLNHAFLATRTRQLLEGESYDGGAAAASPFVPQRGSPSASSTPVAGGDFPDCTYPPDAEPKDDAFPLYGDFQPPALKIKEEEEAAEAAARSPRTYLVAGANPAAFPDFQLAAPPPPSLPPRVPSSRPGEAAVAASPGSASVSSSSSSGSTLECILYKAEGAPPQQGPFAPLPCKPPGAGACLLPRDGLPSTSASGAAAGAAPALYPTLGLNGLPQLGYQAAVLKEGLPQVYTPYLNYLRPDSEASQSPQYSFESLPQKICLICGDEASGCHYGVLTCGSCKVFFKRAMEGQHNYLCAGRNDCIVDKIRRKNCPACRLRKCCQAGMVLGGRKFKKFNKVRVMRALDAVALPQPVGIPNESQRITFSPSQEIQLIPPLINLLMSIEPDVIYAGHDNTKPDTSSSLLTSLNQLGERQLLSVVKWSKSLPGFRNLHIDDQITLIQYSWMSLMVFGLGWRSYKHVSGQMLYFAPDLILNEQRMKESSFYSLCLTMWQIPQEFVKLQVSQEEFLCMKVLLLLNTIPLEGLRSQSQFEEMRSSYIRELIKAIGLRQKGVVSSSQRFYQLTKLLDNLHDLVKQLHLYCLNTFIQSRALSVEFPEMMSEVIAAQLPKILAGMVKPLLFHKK
Protocol: (§1) Study of the activity upon the hormonal receptors.
Non-adult rabbits of about 1 kg are given a cutaneous application of 25 μg of estradiol and 5 days after this treatment, the animals were sacrificed. The uteruses were removed, weighed and homogenized at 0° C. with the aid of a Potter polytertrafluoroethylene dish in a buffered TS solution ([…], HCl pH 7.4) (1 g of tissue per 50 ml of TS). The homogenate was then ultracentrifuged (105,000 g×90 mm) at 0° C. Aliquots of the supernatent fluid thus obtained were incubated at 0° C. for a period (t) with a constant concentration (T) of tritiated Product R (17, 21-dimethyl-19-nor-Δ^-4,9 -pregnadien-3,20-dione) in the presence of increasing concentrations (0-2500. 10^-9 M) either of R cold, or of progesterone cold, or of the product to be tested cold. The concentration of tritiated R bound (B) was then measured in each incubate by the technique of adsorbtion on dextran charcoal.
(§2) The calculation of the relative bonding affinity (ARL) was identical for all the receptors.
(§3) The 2 curves were plotted as follows: the percentage of the tritiated hormone bound B/T as a function of the logarithm of the concentration of the reference hormone cold and B/T as a function of the logarithm of the concentration of the product tested cold.
(§4) The straight line of the equation I50 =(B/T max+B/T min)/2. B/T max=percentage of the tritiated hormone bound for one incubation of this tritiated hormone at the concentration (T) was determined. B/T min=percentage of the tritiated hormone bound for one incubation of this tritiated hormone at the concentration (T) in the presence of a great excess of the cold hormone (2500·10^-9 M).
(§5) The intersections of the straight line I50 and of the curves make it possible to estimate the concentrations of the cold reference hormone (CH) and of the cold product tested (CX) which inhibits 50% of the bonding of the tritiated hormone on the receptor. The relative affinity of the bonding (ARL) of the product tested was determined by the equation [formula]

[2] = biological target: T2, Gluoccocorticoid Receptor of the Rat Thymus (Rattus norvegicus, UniProt P06536); experiment: Relative bonding affinity (ARL), glucocorticoid receptor of the rat thymus; format: binding, rat (male Sprague Dawley EOPS); settings: for relative bonding affinity (ARL), Glucocorticoid: displacement of tritiated dexamethasone
T2 construct: The thymuses were removed and homogenized at 0° C; from tissue; host or cells: thymus of adrenalectomised male Sprague Dawley rats; high-speed supernatant of the homogenate
T2 sequence (P06536 1-795): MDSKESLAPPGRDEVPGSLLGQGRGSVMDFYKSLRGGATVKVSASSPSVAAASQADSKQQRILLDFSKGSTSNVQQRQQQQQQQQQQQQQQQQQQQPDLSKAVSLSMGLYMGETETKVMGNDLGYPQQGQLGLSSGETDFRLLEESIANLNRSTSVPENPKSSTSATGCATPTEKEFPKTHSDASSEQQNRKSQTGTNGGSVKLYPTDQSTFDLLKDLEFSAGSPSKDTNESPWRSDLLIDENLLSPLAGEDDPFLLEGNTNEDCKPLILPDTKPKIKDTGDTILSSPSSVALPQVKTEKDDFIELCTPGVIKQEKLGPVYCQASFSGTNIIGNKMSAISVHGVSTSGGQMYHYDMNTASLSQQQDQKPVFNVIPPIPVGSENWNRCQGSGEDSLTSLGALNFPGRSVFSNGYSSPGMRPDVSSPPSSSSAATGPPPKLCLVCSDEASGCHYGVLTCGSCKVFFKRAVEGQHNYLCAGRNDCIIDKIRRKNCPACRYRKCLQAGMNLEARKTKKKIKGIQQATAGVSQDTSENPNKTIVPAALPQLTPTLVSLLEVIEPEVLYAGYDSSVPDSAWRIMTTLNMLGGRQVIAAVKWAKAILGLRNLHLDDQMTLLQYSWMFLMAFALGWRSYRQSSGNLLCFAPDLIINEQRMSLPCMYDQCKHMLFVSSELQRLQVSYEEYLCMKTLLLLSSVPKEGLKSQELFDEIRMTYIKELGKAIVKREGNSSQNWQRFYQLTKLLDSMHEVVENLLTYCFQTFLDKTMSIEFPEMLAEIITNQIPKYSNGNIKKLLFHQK
Protocol: as §1
Male Sprague Dawley EOPS rats of 160 to 200 g were surrenalectomised and 4 to 8 days after this ablation, the animals were sacrificed. The thymuses were removed and homogenized at 0° C. in a 10 mM Tris, 0.25M saccharose, 2 mM dithiothreitol, HCl pH 7.4 buffer with the aid of a Potter polytetrafluoroethylene dish (1 g of tissue per 10 ml of TS). The homogenate was then ultracentrifuged (105,000×90 mn) at 0° C. Aliquots of the supernatent fluid thus obtained were incubated at 0° for a period (t) with a constant concentration (T) of tritiated dexamethasone in the presence of increasing concentrations (0-2500. 10^-9 M) either of cold dexamethasone, or of cold product to be tested. The concentration of tritiated dexamethasone bound (B) was then measured in each incubate by the technique of adsorption on dextran charcoal.
as §2, §3, §4, §5

[3] = tested on: gestation in the rat; experiment: Abortifacient activity in the rat; format: in vivo; settings: 3 mg/kg orally on Day D 9 of gestation; sacrificed 72 hours after treatment
Protocol: Day D 1 of gestation was determined by the presence of spermatozoids in the vaginal smears and on Day D 9 of gestation, the product was administered orally in suspension in carboxymethyl cellulose containing 0.5% of Tween. The animals were sacrificed 72 hours after the treatment and the uterus was examined to determine the state of gestation.

[4] = tested on: thymocytes of surrenalectomised rats; experiment: Antiglucocorticoidal activity: incorporation of tritiated uridine in thymocytes treated with dexamethasone; format: cell-based, rat; settings: for opposition to the dexamethasone-caused diminution of incorporation of tritiated uridine (in words) / inhibition at 1 µM / inhibition at 0.1 µM / inhibition at 0.01 µM: 5·10^-8 M dexamethasone; for inhibition at 1 µM / inhibition at 0.1 µM / inhibition at 0.01 µM: Rattus norvegicus, Thymocyte, read-out: % inhibition of the effect of Dexamethasone; for inhibition at 1 µM: product tested 10^-6 M; for inhibition at 0.1 µM: product tested 10^-7 M; for inhibition at 0.01 µM: product tested 10^-8 M
Protocol: The technique employed was derived from the method described by Daune et al in Molecular Pharmacology, Vol. 13, 948-955 (1977) "The relationship between glucocorticold structure and effects upon thymocytes", for the thymocytes of the mouse. The thymocytes of surrenalectomised rats were incubated at 37° C. for 3 hours in a nutrient medium containing 5·10^-8 M of dexamethasone, in the presence or absence of a product to be studied at different concentrations. One added tritiated uridine, and continued the incubation for one hour. The incubates were cooled and treated with a 5% solution of trichloroacetic acid. After filtration on Whatman GF/A paper, and washing three times with a 5% trichloroacetic acid solution, the radioactivity retained by the filter was determined.

[5] = 37° C., 3 hours + 1 hour tritiated uridine

Row | SMILES | affinity for the progestogen receptor (in words) [1] | relative bonding affinity (ARL), Progestogen ([1]; time of incubation at 0°: 2H) | relative bonding affinity (ARL), Progestogen ([1]; time of incubation at 0°: 24H) | affinity for the glucocorticoid receptor (in words) [2] | relative bonding affinity (ARL), Glucocorticoid ([2]; time of incubation at 0°: 4H) | relative bonding affinity (ARL), Glucocorticoid ([2]; time of incubation at 0°: 24H) | abortion (state of gestation) [3] | opposition to the dexamethasone-caused diminution of incorporation of tritiated uridine (in words) [4] | inhibition at 1 µM [4, 5] [%] | inhibition at 0.1 µM [4, 5] [%] | inhibition at 0.01 µM [4, 5] [%] | inhibition at 1 µM ([4]; symbol explained in footnote) [%] | incorporation of tritiated uridine (in words) ([4]; effect of glucocorticoid alone)
1 | C[C@@H]1C[C@H]2[C@@H]3CCC4=CC(=O)C=C[C@]4(C)[C@@]3(F)[C@@H](O)C[C@]2(C)[C@@]1(O)C(=O)CO [dexamethasone, reference compound] | – | – | – | – | – | – | – | – | – | – | – | – | cause a diminution of the incorporation of tritiated uridine
2 | C#Cc1ccc([C@H]2C[C@@]3(C)[C@@H](CC[C@@]3(O)C#CCl)[C@@H]3CCC4=CC(=O)CC[C@]45O[C@]235)cc1 [Example 8, 17α-chloroethynyl-9α,10α-epoxy-11β-(4-ethynylphenyl)-17-Δ^4-estraen-17β-ol-3-one] | very marked affinity | 38 | 285 | very marked affinity | 175 | 233 | complete abortion in all the animals | oppose this effect | 77 | 37 | 7 | – | –

Now from value to molecule, other results behind:

Row | affinity for the progestogen receptor (in words) [1] | relative bonding affinity (ARL), Progestogen ([1]; time of incubation at 0°: 2H) | relative bonding affinity (ARL), Progestogen ([1]; time of incubation at 0°: 24H) | affinity for the glucocorticoid receptor (in words) [2] | relative bonding affinity (ARL), Glucocorticoid ([2]; time of incubation at 0°: 4H) | relative bonding affinity (ARL), Glucocorticoid ([2]; time of incubation at 0°: 24H) | SMILES | abortion (state of gestation) [3] | opposition to the dexamethasone-caused diminution of incorporation of tritiated uridine (in words) [4] | inhibition at 1 µM [4, 5] [%] | inhibition at 0.1 µM [4, 5] [%] | inhibition at 0.01 µM [4, 5] [%] | inhibition at 1 µM ([4]; symbol explained in footnote) [%] | incorporation of tritiated uridine (in words) ([4]; effect of glucocorticoid alone)
3 | very marked affinity | 44 | 167 | very marked affinity | 107 | 124 | C#Cc1ccc([C@H]2C[C@@]3(C)[C@@H](CC[C@@]3(O)C#CC)[C@@H]3CCC4=CC(=O)CCC4=C32)cc1 [Example 3, 11β-(4-ethynylphenyl)-17α-(1-propynyl)-Δ^4,9-estradien-17β-ol-3-one] | complete abortion in all the animals | – | – | – | – | – | –
4 | very marked affinity | 41 | 124 | very marked affinity | 65 | 57 | C#Cc1ccc([C@H]2C[C@@]3(C)[C@@H](CC[C@@]3(O)CC=C)[C@@H]3CCC4=CC(=O)CCC4=C32)cc1 [Example 4, 11β-(4-ethynylphenyl)-17α-allyl-Δ^4,9-estradien-17β-ol-3-one] | complete abortion in all the animals | oppose this effect | 99 | 71 | 46 | – | –
5 | very marked affinity | 51 | 325 | very marked affinity | 84 | 153 | C#Cc1ccc([C@H]2C[C@@]3(C)[C@@H](CC[C@@]3(O)C#CCl)[C@@H]3CCC4=CC(=O)CCC4=C32)cc1 [Example 5, 17α-(chloroethynyl)-11β-(4-ethynylphenyl)-Δ^4,9-estradien-17β-ol-3-one] | complete abortion in all the animals | oppose this effect | – | 84 | 47 | 100 | –
